This note sets out measurements from ChEMBL document CHEMBL1148572, “1-((S)-2-aminopropyl)-1H-indazol-6-ol: a potent peripherally acting 5-HT2 receptor agonist with ocular hypotensive activity” (J Med Chem, 2006).

The target in series [1] is Glutamate receptor ionotropic kainate (Homo sapiens) (UniProt P39086+Q16478+Q16099+Q13002+Q13003). The series can be described thus: Inhibition of kainate receptor at 1 nM. Format: protein-complex assay.
Series [2] concerns the target Glutamate [NMDA] receptor (Homo sapiens) (UniProt Q05586+Q12879+Q13224+O15399+O60391+Q14957+Q8TCU5). As to the kind of experiment: Inhibition of agonist site of NMDA receptor at 100 nM. Format: functional.
For series [3], the target named is Opioid receptors; mu/kappa/delta (Homo sapiens) (UniProt P41145+P41143+P35372). The series can be described thus: Inhibition of non selective binding to opiate receptor at 1 nM. Format: protein assay.
Opioid receptors; mu/kappa/delta (Homo sapiens), sequence (P35372 whole entry, looked up): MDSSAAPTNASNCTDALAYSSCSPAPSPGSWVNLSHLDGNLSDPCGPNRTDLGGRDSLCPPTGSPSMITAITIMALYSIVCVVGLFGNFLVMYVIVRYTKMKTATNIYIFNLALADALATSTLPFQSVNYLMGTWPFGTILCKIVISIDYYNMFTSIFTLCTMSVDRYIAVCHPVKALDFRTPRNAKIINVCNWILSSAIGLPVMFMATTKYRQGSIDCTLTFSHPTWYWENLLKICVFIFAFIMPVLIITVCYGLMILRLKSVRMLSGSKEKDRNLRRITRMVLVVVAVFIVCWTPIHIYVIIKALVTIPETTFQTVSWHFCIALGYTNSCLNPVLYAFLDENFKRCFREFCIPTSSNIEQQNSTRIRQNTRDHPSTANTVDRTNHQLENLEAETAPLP
Opioid receptors; mu/kappa/delta (Homo sapiens), sequence (P41143 whole entry, looked up): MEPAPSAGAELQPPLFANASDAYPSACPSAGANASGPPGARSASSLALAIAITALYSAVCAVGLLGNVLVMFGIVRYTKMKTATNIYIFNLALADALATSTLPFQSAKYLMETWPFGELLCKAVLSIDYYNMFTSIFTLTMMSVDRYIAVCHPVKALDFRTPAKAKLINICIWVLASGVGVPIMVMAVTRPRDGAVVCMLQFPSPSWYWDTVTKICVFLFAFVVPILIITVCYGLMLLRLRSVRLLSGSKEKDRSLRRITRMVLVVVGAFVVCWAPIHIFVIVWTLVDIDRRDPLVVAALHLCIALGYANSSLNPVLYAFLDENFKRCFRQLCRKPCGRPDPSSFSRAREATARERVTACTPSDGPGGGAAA
Opioid receptors; mu/kappa/delta (Homo sapiens), sequence (P41145 whole entry, looked up): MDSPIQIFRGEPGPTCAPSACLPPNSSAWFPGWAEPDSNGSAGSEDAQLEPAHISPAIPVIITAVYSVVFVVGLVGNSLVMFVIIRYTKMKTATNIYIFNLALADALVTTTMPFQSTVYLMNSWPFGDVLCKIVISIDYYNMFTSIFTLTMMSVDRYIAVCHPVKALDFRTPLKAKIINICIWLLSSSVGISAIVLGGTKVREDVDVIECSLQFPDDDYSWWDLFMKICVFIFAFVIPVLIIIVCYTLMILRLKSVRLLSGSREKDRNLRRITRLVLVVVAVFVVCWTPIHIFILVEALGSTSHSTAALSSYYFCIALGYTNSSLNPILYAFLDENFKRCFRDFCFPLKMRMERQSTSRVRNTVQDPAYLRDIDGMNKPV
The target of series [4] is L-type calcium channel, dihydropyridine site (Homo sapiens, UniProt O60840+Q01668+Q13698+Q13936). The series can be described thus: Inhibitory activity at dihydropyridine site of Calcium channel L type at 100 nM. Format: protein assay.
Series [5] is described as follows: Inhibitory activity at site 2 of sodium channel at 100 nM.
In series [6] the target is T1, 5-hydroxytryptamine receptor 1A (Homo sapiens) (UniProt P08908).
T1 sequence (whole entry): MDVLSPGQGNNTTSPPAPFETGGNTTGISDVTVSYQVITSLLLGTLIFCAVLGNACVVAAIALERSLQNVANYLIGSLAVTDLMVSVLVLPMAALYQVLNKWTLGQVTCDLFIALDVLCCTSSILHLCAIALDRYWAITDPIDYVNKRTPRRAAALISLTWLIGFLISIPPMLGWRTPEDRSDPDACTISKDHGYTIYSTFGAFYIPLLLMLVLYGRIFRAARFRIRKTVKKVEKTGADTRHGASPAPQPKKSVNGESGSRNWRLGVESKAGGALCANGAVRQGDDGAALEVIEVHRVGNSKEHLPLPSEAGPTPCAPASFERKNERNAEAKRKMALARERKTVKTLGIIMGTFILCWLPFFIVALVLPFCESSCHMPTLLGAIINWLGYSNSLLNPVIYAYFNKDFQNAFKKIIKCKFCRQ
As to the kind of experiment: Inhibition of forskolin activated adenylate cyclase at 1 nM. Format: functional.

Series [7] addresses T1, 5-hydroxytryptamine receptor 1A (Homo sapiens). As to the kind of experiment: Inhibition of forskolin activated adenylate cyclase at 100 nM. Format: functional.
Series [8] has as its target Protein kinase C, PKC; classical/novel (Homo sapiens) (UniProt O94806+P17252+P05129+Q05655+P05771+Q02156+P24723+Q15139+Q04759). The series can be described thus: Inhibition of PDBu activated protein kinase C at 10 uM. Format: protein assay.
Series [9] addresses Platelet-activating factor receptor (Homo sapiens) (UniProt P25105). As to the kind of experiment: Inhibition of PAF at 10 uM.
Series [10] concerns the target T2, Type-1 angiotensin II receptor (Homo sapiens) (UniProt P30556).
T2 sequence (whole entry): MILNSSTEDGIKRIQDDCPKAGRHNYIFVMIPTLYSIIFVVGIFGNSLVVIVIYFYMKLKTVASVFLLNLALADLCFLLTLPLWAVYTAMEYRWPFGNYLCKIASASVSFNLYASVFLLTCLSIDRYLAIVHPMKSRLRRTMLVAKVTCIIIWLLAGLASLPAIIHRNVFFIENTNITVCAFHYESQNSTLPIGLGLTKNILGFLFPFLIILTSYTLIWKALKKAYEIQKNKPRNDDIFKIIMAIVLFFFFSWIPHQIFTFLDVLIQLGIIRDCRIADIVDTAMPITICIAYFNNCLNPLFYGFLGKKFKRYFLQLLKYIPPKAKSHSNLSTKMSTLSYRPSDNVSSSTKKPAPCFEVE
The series can be described thus: Inhibition of type 1 angiotensin 2 receptor at 1 nM.

Series [11] deals with T3, Endothelin-1 receptor (Homo sapiens) (UniProt P25101).
T3 sequence (whole entry): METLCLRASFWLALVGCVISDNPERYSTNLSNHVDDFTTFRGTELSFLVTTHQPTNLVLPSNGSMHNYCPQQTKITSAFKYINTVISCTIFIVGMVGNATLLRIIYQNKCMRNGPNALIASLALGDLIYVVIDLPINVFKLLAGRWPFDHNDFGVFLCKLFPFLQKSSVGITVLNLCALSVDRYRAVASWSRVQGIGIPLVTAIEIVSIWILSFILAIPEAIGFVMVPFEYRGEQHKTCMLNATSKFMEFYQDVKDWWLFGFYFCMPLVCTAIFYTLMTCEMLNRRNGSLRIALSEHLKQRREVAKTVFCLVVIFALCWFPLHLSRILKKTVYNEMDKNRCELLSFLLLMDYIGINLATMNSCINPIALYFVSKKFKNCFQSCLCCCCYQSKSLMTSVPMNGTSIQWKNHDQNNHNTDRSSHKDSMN
The series can be described thus: Inhibition of human recombinant endothelin 1 receptor at 100 nM.

Series [12] has as its target Sigma non-opioid intracellular receptor 1 (Homo sapiens) (UniProt Q99720). The series can be described thus: Inhibition of non selective binding to sigma receptor at 100 nM.
Series [13] has as its target 5-hydroxytryptamine receptor 1D (Homo sapiens, UniProt P28221). As to the kind of experiment: Inhibitory activity against 5HT1D receptor.
Series [14] concerns the target T4, Alpha-2C adrenergic receptor (Homo sapiens, UniProt P18825).
T4 sequence (P18825 whole entry): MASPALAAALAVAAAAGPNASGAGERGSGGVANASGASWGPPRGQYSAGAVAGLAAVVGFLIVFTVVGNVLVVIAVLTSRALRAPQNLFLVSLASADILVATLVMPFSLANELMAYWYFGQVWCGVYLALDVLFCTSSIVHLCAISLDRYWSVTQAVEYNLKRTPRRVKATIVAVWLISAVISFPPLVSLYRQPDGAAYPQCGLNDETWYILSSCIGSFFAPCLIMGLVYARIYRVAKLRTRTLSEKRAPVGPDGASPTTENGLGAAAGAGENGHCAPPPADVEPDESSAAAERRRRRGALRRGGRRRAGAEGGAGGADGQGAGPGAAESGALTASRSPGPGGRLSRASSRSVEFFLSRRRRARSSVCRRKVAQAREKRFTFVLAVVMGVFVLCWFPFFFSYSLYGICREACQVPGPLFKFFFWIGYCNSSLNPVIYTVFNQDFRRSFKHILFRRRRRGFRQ
As to the kind of experiment: Displacement of [3H]clonidine from cloned human adrenergic Alpha-2C receptor expressed in Sf9 cells. On the technique in general: Displacement assays read how much labelled ligand stays bound in the presence of the test substance.

The target of series [15] is T4, Alpha-2C adrenergic receptor. As to the kind of experiment: Activity at adrenergic Alpha-2C receptor expressed in rat-mouse hybrid […] cell by adenylyl cyclase assay. Format: functional, cell-based.
The target of series [16] is Alpha-1B adrenergic receptor (Homo sapiens, UniProt P35368). The series can be described thus: Inhibitory activity against adrenergic alpha-1B receptor.
Alpha-1B adrenergic receptor, sequence (P35368 whole entry): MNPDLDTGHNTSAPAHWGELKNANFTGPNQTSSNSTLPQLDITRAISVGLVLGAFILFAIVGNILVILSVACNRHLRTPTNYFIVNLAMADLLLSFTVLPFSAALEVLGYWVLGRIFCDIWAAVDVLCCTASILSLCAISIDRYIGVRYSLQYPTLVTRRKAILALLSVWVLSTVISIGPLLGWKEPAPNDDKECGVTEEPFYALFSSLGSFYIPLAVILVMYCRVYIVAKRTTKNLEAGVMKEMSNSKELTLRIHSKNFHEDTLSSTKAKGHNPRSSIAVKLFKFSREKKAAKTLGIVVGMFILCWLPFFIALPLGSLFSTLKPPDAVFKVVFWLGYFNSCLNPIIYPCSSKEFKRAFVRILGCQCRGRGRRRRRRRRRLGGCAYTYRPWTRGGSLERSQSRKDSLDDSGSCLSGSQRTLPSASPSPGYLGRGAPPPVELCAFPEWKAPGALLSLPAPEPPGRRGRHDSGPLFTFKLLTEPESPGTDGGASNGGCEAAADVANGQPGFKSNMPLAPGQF
Series [17] deals with Dopamine receptor (Homo sapiens) (UniProt P14416+P35462+P21918+P21917+P21728). The series can be described thus: Inhibition of non selective binding to dopamine receptor at 10 uM. Format: protein assay.

Platelet-activating factor receptor (Homo sapiens), sequence (P25105 whole entry): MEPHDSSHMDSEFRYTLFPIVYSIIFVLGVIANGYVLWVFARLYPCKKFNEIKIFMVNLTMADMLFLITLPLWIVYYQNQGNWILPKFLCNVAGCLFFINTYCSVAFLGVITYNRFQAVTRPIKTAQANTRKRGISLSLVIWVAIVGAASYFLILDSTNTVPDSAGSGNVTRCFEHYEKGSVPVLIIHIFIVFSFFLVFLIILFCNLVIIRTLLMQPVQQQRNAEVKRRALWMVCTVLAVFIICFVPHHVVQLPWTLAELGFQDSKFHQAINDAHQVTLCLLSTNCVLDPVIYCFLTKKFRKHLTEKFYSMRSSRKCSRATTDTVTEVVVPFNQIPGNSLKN
5-hydroxytryptamine receptor 1D, sequence (P28221 whole entry): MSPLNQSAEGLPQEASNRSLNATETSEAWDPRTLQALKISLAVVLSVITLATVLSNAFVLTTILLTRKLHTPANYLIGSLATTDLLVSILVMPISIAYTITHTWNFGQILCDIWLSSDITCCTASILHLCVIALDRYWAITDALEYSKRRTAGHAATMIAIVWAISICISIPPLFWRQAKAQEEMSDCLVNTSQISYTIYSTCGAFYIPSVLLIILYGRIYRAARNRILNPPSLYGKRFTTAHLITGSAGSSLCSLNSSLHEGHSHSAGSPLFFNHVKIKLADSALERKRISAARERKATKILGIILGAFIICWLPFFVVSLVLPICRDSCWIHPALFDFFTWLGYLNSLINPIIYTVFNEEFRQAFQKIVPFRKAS
Sigma non-opioid intracellular receptor 1 (Homo sapiens), sequence (Q99720 whole entry): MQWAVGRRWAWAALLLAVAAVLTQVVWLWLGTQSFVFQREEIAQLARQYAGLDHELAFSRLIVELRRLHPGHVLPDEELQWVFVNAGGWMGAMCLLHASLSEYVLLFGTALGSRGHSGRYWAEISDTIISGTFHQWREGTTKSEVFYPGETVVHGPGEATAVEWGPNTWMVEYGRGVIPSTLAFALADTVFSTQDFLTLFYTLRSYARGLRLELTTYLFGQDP

For `C[C@H](N)Cn1ncc2ccc(O)cc21`, the inhibition (as a rule, the relative decrease from the control value, in per cent) in series [1] is 12%; in series [2], 15.7%; in series [3] it was -6.1%; in series [5] it was 5.17%; in [6] it was 2.48%; in [7] it was -2.24%. Besides, the inhibition in series [8] is 22.8%; in series [9] it was 34.4%; in series [10], 5.26%; in series [11] it was 2.04%; in [12], 0.17%; in series [17] it was 51.2%. The inhibition at 0.1 µM in series [4] was 12%. Moreover, the values for the Ki in [13], in series [14] and in series [16] were 7.87 µM, 4.7 µM and more than 30 µM, respectively. Further, in [15], the EC50 – broadly, the concentration giving half of the maximal effect – was 10 µM.
